Results: US20240247253A1, “PRODUCTION METHOD OF POLYPEPTIDE, TAG, EXPRESSION VECTOR, EVALUATION METHOD OF POLYPEPTIDE, PRODUCTION METHOD OF NUCLEIC ACID DISPLAY LIBRARY, AND SCREENING METHOD” (FUJIFILM Corporation, priority 2021, published 2024)
Ends that are not written are not given here. * marks the point of attachment. ClAc = O=C(CCl)*

What was measured:
[1] = test system: cell-free peptide synthesis system derived from Escherichia coli; assay: Cell-free biosynthesis of the integrin binding peptide fusion protein with N-terminal tag, 1 hour reaction, amount measured by ELISA; assay type: biochemical; conditions: fusion protein SEQ ID NO: 5; for Biosynthesis amount of fusion protein: relative value, control example without tag = 1, 37° C. for 1 hour, average of two measurements
Text: In the cell-free peptide synthesis system derived from Escherichia coli, the effect of the VKKX tag on the biosynthesis amount of the polypeptide was examined. As a polypeptide to be biosynthesized, an integrin binding peptide containing cysteine and chloroacetyl lysine was selected. In this polypeptide, a thiol group of cysteine and a chloroacetyl group of chloroacetyl lysine spontaneously form a thioether bond to become a cyclic polypeptide.
A fusion protein in which an integrin binding peptide, a Myc tag, and a HiBiT tag were linked in this order was designed. As a spacer, Gly-Gly-Ser was inserted between the integrin binding peptide and the Myc tag and between the Myc tag and the HiBiT tag. The amino acid sequence of this fusion protein is SEQ ID NO: 5, and the base sequence encoding this fusion protein is SEQ ID NO: 6. In SEQ ID NO: 5, the integrin binding peptide ranges to the amino acid at the twelfth position (that is, alanine) from an N-terminal, and the amino acid at eleventh position from the N-terminal is chloroacetyl lysine. The triplet TAG at the positions 31 to 33 from the 5′ terminal of the base sequence set forth in SEQ ID NO: 6 was assigned to the codon of chloroacetyl lysine. The end of the base sequence set forth in SEQ ID NO: 6 is the stop codon TAA.
A base sequence encoding a tagged fusion protein in which methionine, a VKKX tag (any of SEQ ID nOs: 7 to 52), and a fusion protein (SEQ ID NO: 5) were linked in this order was designed. In this base sequence, a base sequence (any of SEQ ID nOs: 53 to 98) encoding a VKKX tag is arranged immediately after the start codon ATG, and a base sequence encoding a fusion protein immediately after the base sequence (SEQ ID NO: 6) encoding the VKKX tag is arranged.
As a control example for evaluating the effect of the VKKX tag, a base sequence in which a base sequence (SEQ ID NO: 6) encoding a fusion protein arranged immediately after the start codon ATG was designed.
In order to translate chloroacetyl lysine which is an unnatural amino acid, a tRNA in which the anticodon was CUA and paired with the UAG codon of mRNA was prepared. This tRNA was aminoacylated with an N-chloroacetyl lysine hosphoro 2′ deoxyribocytidylylriboadenosine (pdCpA) ester. This aminoacyl tRNA is referred to as an Aminoacyl tRNA (1).
(§1) The cell-free biosynthesis of the polypeptide was carried out in a translation solution containing a template DNA, PUREfrex 2.0 (GeneFrontier, PF201-0.25-5), and Aminoacyl tRNA (1). 1.25 μL (62.5 ng) of the template DNA prepared to 50 ng/μL, 2.5 μL of PUREfrex 2.0 Solution I, 0.25 μL of Solution II, 0.5 μL of Solution III, and 0.5 μL of Aminoacyl tRNA (1) were mixed and mixture was subjected to a reaction at 37° ° C. for 1 hour.
The amount of the biosynthesized polypeptide was measured by ELISA. 50 ng of Recombinant Human Integrin αVβ3 (R&D systems, 3050-AV-050) was immobilized in each well of a 96-well plate and blocked with Blocker Casein in PBS (Thermo, 37528), and then a cell-free biosynthesis solution diluted with Can Get Signal Immunoreaction Enhancer Solution I (TOYOBO, NKB-101) containing 5 mmol/L MgCl2 was added thereto, and the mixture was subjected to a reaction at room temperature for 3 hours. After washing with 5 mmol/L MgCl2/0.05% Tween 20-containing phosphate buffered saline (PBS), an anti-Myc antibody (Cell Signaling, 14038S) diluted with Can Get Signal Immunoreaction Enhancer Solution II (TOYOBO, NKB-101) was added thereto, and the mixture was subjected to a reaction at room temperature for 2 hours. After washing with PBS containing 5 mmol/L MgCl2/0.05% Tween 20, Super Signal ELISA Femto Substrate (Thermo, 37075) was added thereto, and the luminescence was measured. The amount of the fusion protein in the cell-free biosynthesis solution was calculated based on a calibration curve created from the fusion protein having a known concentration. The luminescence measurement was performed twice, and the average value of the amounts of the fusion protein was calculated. […]

[2] = test system: cell-free peptide synthesis system derived from Escherichia coli; assay: Cell-free biosynthesis of the integrin binding peptide fusion protein with tag, reaction time 10 minutes, ELISA; assay type: biochemical; conditions: relative value, control without tag = 1; reaction time 10 minutes; fusion protein SEQ ID NO: 5; SKIK encoded by SEQ ID NO: 110
Protocol: as §1
The amount of the biosynthesized polypeptide was measured by ELISA. 50 ng of Recombinant Human Integrin αVβ3 (R&D systems, 3050-AV-050) was immobilized in each well of a 96-well plate and blocked with Blocker Casein in PBS (Thermo, 37528), and then a cell-free biosynthesis solution diluted with Can Get Signal Immunoreaction Enhancer Solution I (TOYOBO, NKB-101) containing 5 mmol/L MgCl2 was added thereto, and the mixture was subjected to a reaction at room temperature for 3 hours. After washing with 5 mmol/L MgCl2/0.05% Tween 20-containing phosphate buffered saline (PBS), an anti-Myc antibody (Cell Signaling, 14038S) diluted with Can Get Signal Immunoreaction Enhancer Solution II (TOYOBO, NKB-101) was added thereto, and the mixture was subjected to a reaction at room temperature for 2 hours. After washing with PBS containing 5 mmol/L MgCl2/0.05% Tween 20, Super Signal ELISA Femto Substrate (Thermo, 37075) was added thereto, and the luminescence was measured. The amount of the fusion protein in the cell-free biosynthesis solution was calculated based on a calibration curve created from the fusion protein having a known concentration. The luminescence measurement was performed twice, and the average value of the amounts of the fusion protein was calculated. Table 2-1 and Table 2-2 show relative values of the biosynthesis amounts of respective fusion proteins in a case where the amount of the fusion protein of the control example was set to the reference value 1.
As a comparative control, a SKIK tag represented by SEQ ID NO: 107 was selected. The polypeptide to be biosynthesized is the fusion protein containing the integrin binding peptide, as in Example 1.
Using a template DNA including DNA sequences (SEQ ID NOs: 73 to 98) encoding VKKX tags represented by SEQ ID NOs: 27 to 52 produced in Example 1, and a DNA sequence (SEQ ID NO: 110) encoding a SKIK tag represented by SEQ ID NO: 107 produced in Example 2, the biosynthesis reaction was performed in the same manner as in Example 1 by setting the reaction time to 10 minutes. In the same manner in Example 1, the fusion protein was expressed by the cell-free peptide synthesis system and quantified by ELISA. The measurement was performed twice, and the average value of the amounts of the fusion protein was calculated. […] As control example used in Example 1, the control example of the reference value 1 has a form in which the base sequence (SEQ ID NO: 6) encoding the fusion protein is arranged immediately after the start codon ATG.

[3] = target: T1, Recombinant Human Integrin αVβ3 (R&D systems, 3050-AV-050) (human, UniProt P06756 31-992; P05106 27-718); assay: SPR (Biacore T-100): peptide immobilized on CM5 chip, integrin αVβ3 injected at 10, 30, 100, 300 nmol/L, 5 mmol/L MgCl2
T1 construct: Bought heterodimer
T1 sequence (P06756 31-992 limits assumed, chain 1 of 2): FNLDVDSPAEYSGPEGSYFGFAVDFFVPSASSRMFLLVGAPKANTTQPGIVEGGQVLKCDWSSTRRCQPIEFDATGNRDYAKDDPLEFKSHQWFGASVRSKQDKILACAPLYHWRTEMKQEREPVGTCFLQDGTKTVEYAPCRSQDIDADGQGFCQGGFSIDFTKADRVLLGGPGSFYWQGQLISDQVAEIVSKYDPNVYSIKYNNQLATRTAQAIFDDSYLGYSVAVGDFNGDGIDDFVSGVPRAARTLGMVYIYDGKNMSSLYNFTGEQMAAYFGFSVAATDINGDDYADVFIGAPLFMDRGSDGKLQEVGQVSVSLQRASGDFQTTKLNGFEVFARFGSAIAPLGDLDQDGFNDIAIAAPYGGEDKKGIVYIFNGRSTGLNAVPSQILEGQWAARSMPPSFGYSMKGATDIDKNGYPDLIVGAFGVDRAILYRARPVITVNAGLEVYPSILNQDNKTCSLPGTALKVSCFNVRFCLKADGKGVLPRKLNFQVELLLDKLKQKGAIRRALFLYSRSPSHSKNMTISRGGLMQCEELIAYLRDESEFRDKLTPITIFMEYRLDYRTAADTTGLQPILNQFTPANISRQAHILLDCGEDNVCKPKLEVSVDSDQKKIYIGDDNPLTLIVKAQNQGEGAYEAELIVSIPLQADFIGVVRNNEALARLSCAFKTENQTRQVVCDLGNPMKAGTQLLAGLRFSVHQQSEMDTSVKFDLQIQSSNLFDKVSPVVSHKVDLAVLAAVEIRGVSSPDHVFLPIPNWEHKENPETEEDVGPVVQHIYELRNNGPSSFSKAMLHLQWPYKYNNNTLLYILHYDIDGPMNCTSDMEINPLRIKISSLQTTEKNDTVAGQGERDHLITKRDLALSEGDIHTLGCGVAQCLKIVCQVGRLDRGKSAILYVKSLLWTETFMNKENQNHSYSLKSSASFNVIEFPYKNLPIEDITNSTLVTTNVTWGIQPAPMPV
T1 sequence (P05106 27-718 limits assumed, chain 2 of 2): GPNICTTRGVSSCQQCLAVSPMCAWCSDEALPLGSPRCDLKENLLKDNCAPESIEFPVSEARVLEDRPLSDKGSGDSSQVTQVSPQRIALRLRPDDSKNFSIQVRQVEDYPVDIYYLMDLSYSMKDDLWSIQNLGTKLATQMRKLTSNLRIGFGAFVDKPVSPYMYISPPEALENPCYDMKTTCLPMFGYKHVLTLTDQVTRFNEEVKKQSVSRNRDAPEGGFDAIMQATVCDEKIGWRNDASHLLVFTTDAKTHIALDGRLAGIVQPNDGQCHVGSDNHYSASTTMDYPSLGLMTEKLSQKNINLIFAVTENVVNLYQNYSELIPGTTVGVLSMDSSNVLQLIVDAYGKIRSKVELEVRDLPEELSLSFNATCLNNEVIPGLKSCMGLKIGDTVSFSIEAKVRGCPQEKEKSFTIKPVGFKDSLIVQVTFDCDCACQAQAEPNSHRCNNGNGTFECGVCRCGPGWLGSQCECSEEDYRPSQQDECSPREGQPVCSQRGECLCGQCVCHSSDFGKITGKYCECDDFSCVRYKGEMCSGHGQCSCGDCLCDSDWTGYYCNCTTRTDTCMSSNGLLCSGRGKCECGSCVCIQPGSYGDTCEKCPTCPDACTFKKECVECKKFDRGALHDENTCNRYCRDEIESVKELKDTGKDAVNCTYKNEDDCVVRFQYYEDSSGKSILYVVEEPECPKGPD
Protocol: In addition, as a comparative control, the binding ability (Kd value) of the integrin binding peptide was measured by the SPR method. An integrin binding peptide (SEQ ID NO: 126) was chemically synthesized and immobilized on a CM5 chip (Cytiva, BR100530) by an amine coupling method. The binding ability of the immobilized integrin binding peptide to Recombinant Human Integrin αVβ3 (R&D systems, 3050-AV-050) was measured using Biacore T-100 (Cytiva). As the measurement buffer, an HBS-N buffer (Cytiva, BR100670) in which MgCl₂ was added such that the final concentration was 5 mmol/L, and integrin was added thereto at a concentration of 10, 30, 100, or 300 nmol/L for 10 minutes. The CM5 chip was regenerated and used by repeating the addition of 500 mmol/L EDTA for 10 minutes twice.

Row | Kd [3] [nM] | Molecule | Biosynthesis amount of fusion protein [1] | Biosynthesis amount of fusion protein [2] | increase of biosynthesis amount of the fusion protein ([1]; Example 1, versus control without tag, 1 hour) [times]
1 | – | SEQ ID NO: 45: VKKX tag, amino acid sequence VKKTKTTKD (VKKX Tag) | 7.83 | 10.61 | –
2 | – | SEQ ID NO: 46: VKKX tag, amino acid sequence VKKTKTKKTK (VKKX Tag) | 9.94 | 23.47 | –
3 | – | SEQ ID NO: 47: VKKX tag, amino acid sequence VKKTKTKKDK (VKKX Tag) | 8.90 | 15.53 | –
4 | – | SEQ ID NO: 48: VKKX tag, amino acid sequence VKKTKTKTKK (VKKX Tag) | 10.47 | 36.08 | –
5 | – | SEQ ID NO: 49: VKKX tag, amino acid sequence VKKTKTKTTK (VKKX Tag) | 7.44 | 8.75 | –
6 | – | SEQ ID NO: 50: VKKX tag, amino acid sequence VKKTKTKDKK (VKKX Tag) | 7.78 | 35.42 | –
7 | – | SEQ ID NO: 51: VKKX tag, amino acid sequence VKKTKTTTKK (VKKX Tag) | 6.29 | 15.28 | –
8 | – | SEQ ID NO: 52: VKKX tag, amino acid sequence VKKTKTKTDTT (VKKX Tag) | 4.33 | 9.15 | 4.3
9 | 7.6 | CEPRGDNYRK(ClAc)GGSKKK (Immobilized on a CM5 chip by amine coupling; also called CEPRGDNYRXGGSKKK) [chemically synthesized integrin binding peptide (SEQ ID NO: 126)] | – | – | –
